# Source: US20250213478A1, “CATIONIC LIPID HAVING DISULFIDE BOND, LIPID MEMBRANE STRUCTURE INCLUDING SAME, NUCLEIC ACID INTRODUCTION AGENT AND PHARMACEUTICAL COMPOSITION CONTAINING ANY ONE OF SAME, METHOD FOR INTRODUCING NUCLEIC ACID INTO CELL OR TARGET CELL, AND METHOD FOR PRODUCING CELLULAR PHARMACEUTICAL” (NOF Corporation, priority 2022, published 2025)
# Assays:
# [1] = tested on: HeLa cells; experiment: Evaluation of in vitro gene expression in HeLa cell (luciferase mRNA-encapsulating LNP); type: cell-based, human; details: for cumulative luciferase luminescence intensity over 24 hr: luciferase mRNA 0.4 μg per dish, LNP cationic lipid:DOPC:Chol:DMG-PEG2k=55:5:40:1; for gene expression activity compared to Comparative Example: result in words
# Summary of the method: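 LNP (cationic lipid:DOPC:Chol:DMG-PEG2k=55:5:40:1) carrying luciferase mRNA, 0.4 μg mRNA per 3.5 cm dish, added to HeLa cells in D-MEM with 0.1 mM D-luciferin. Luminescence read 2 min every hour in an incubator luminometer; value is cumulative luminescence over 24 hr.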
# [2] = Measurement of Liposomal pKa of LNP (TNS fluorescence); type: physicochemical; details: LNP without nucleic acid, cationic lipid:DOPC:Chol=52.5:7.5:40 + about 1.5 mol DMG-PEG2k; pH at which relative TNS fluorescence intensity was 50%
# Summary of the method: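 Nucleic-acid-free LNPs (cationic lipid:DOPC:Chol 52.5:7.5:40, ~1.5 mol DMG-PEG2k) prepared by microfluidic mixing, diluted to 0.5 mM lipid, mixed with TNS in 150 mM NaCl buffers spanning pH 3.0–10.0. Fluorescence at ex 321/em 447 nm normalised 0–100% per LNP; pKa is the pH at 50%.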
# [3] = Particle size, PdI and zeta potential of mRNA-encapsulating LNPs (dynamic light scattering); type: physicochemical; details: mRNA-encapsulating LNP, cationic lipid:DOPC:Chol=55:5:40 + about 1 mol DMG-PEG2k; for PdI / particle size: dynamic light scattering; for zeta potential: physiological pH
# Summary of the method: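 LNPs were made from cationic lipid:DOPC:Chol at 55:5:40 molar ratio plus about 1 mol DMG-PEG2k, microfluidically mixed with mRNA in malate buffer (20 mM, pH 3.0, 30 mM NaCl). They were ultrafiltered into PBS at 2 mM lipid. Size, PdI and zeta potential were measured by dynamic light scattering.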
# [4] = tested on: BALB/c mouse; experiment: Evaluation of in vivo gene expression (luciferase mRNA-encapsulating LNP, IVIS of isolated organs); details: for relative value based on Comparative Example (amount of luminescence in spleen): relative to O-Ph-P4C2 LNP = 1.00; for amount of luminescence in each organ: heart / amount of luminescence in each organ: kidney / amount of luminescence in each organ: liver / amount of luminescence in each organ: lung / amount of luminescence in each organ: spleen: tail vein, mRNA 0.05 mg/kg, 4.5 hr + 15 min after administration; for amount of luminescence in each organ: spleen: spleen (Table 7); for gene expression activity in the spleen compared to Comparative Example: result in words
# Summary of the method: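 Luciferase mRNA in LNP (cationic lipid:DOPC:Chol:DMG-PEG2k = 55:5:40:1 molar) given by tail vein to male 5-week-old BALB/c mice at 0.05 mg mRNA/kg. At 4.5 hr, D-luciferin (3 mg/mouse) was given intraperitoneally; 15 min later liver, spleen, kidney, heart and lung were excised and luminescence (photons/sec) quantified by IVIS imaging.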
Structure (SMILES),pKa [2],PdI [3],particle size [3],zeta potential [3],cumulative luciferase luminescence intensity over 24 hr [1],gene expression activity compared to Comparative Example [1],relative value based on Comparative Example (amount of luminescence in spleen) [4],amount of luminescence in each organ: heart [4],amount of luminescence in each organ: kidney [4],amount of luminescence in each organ: liver [4],amount of luminescence in each organ: lung [4],amount of luminescence in each organ: spleen [4],gene expression activity in the spleen compared to Comparative Example [4]
CCCCCCCCCCCCCC(=O)OCC(C)(COC(=O)CCCCCCCCCCCCC)C(=O)Oc1ccc(CC(=O)OCCSSCCOC(=O)NCCN(CC)CC)cc1 [Example 31],7.6,0.072,59 nm,4.1 mV,1.58E+08 RLU,superior gene expression activity,1.74,7.26E+05 photons/sec,5.53E+05 photons/sec,2.62E+07 photons/sec,9.16E+05 photons/sec,1.88E+07 photons/sec,superior gene expression activity
CCCCCCCC/C=C\CCCCCCCC(=O)OCC(C)(COC(=O)CCCCCCC/C=C\CCCCCCCC)C(=O)Oc1ccc(CC(=O)OCCSSCCOC(=O)NCCN(CC)CC)cc1 [Example 34],7.2,0.060,63 nm,0.4 mV,1.08E+08 RLU,superior gene expression activity,1.27,6.83E+05 photons/sec,5.04E+05 photons/sec,2.52E+07 photons/sec,6.02E+05 photons/sec,1.37E+07 photons/sec,superior gene expression activity
CCCCC/C=C\C/C=C\CCCCCCCC(=O)OCC(C)(COC(=O)CCCCCCC/C=C\C/C=C\CCCCC)C(=O)Oc1ccc(CC(=O)OCCSSCCOC(=O)NCCN(CC)CC)cc1 [Example 35],6.8,0.068,70 nm,−4.0 mV,6.34E+07 RLU,superior gene expression activity,0.37,6.31E+05 photons/sec,3.94E+05 photons/sec,1.35E+07 photons/sec,4.65E+05 photons/sec,4.03E+06 photons/sec,
CCCCCCCC/C=C\CCCCCCCC(=O)OCC(C)(COC(=O)CCCCCCC/C=C\CCCCCCCC)C(=O)Oc1ccc(CC(=O)OCCSSCCOC(=O)NCCN(C)CCO)cc1 [Example 36],7.3,0.090,92 nm,−2.5 mV,7.66E+07 RLU,superior gene expression activity,0.19,9.67E+05 photons/sec,6.33E+05 photons/sec,2.33E+06 photons/sec,8.67E+05 photons/sec,2.00E+06 photons/sec,

# The next lines start with results.
pKa [2],PdI [3],particle size [3],zeta potential [3],Structure (SMILES),cumulative luciferase luminescence intensity over 24 hr [1],gene expression activity compared to Comparative Example [1],relative value based on Comparative Example (amount of luminescence in spleen) [4],amount of luminescence in each organ: heart [4],amount of luminescence in each organ: kidney [4],amount of luminescence in each organ: liver [4],amount of luminescence in each organ: lung [4],amount of luminescence in each organ: spleen [4],gene expression activity in the spleen compared to Comparative Example [4]
8.6,0.126,78 nm,14.7 mV,CCCCCCCCCCCCCCCCC(CCCCCCCCCCCCCCCC)C(=O)Oc1ccc(CC(=O)OCCSSCCOC(=O)NCCCCN(C)C)cc1 [Example 25],1.25E+07 RLU,superior gene expression activity,0.03,4.74E+05 photons/sec,3.63E+05 photons/sec,1.67E+05 photons/sec,2.74E+05 photons/sec,3.07E+05 photons/sec,
6.7,0.070,66 nm,−1.4 mV,CCCCCCCCCCCCCCCCC(CCCCCCCCCCCCCCCC)C(=O)Oc1ccc(CC(=O)OCCSSCCOC(=O)NCCN(C(C)C)C(C)C)cc1 [Example 28],4.57E+07 RLU,superior gene expression activity,0.16,6.88E+05 photons/sec,6.48E+05 photons/sec,9.90E+07 photons/sec,9.12E+05 photons/sec,1.68E+06 photons/sec,
6.7,0.080,59 nm,1.2 mV,CCCCCCCCCCCCCCCCC(CCCCCCCCCCCCCCCC)C(=O)Oc1ccc(CC(=O)OCCSSCCOC(=O)N(C)CCN(CC)CC)cc1 [Example 29],1.75E+07 RLU,superior gene expression activity,0.29,7.27E+05 photons/sec,6.29E+05 photons/sec,8.05E+07 photons/sec,7.49E+05 photons/sec,3.16E+06 photons/sec,
6.4,0.080,59 nm,2.3 mV,CCCCCCCCCCCCCCCCC(CCCCCCCCCCCCCCCC)C(=O)Oc1ccc(CC(=O)OCCSSCCOC(=O)OCCN(C)C)cc1 [Example 30],1.35E+07 RLU,superior gene expression activity,0.12,6.17E+05 photons/sec,3.80E+05 photons/sec,1.98E+07 photons/sec,5.26E+05 photons/sec,1.24E+06 photons/sec,
